In publication PMC12737022, “Evaluations of Sex Differences in Dosimetry in Rats Following Perfluorohexanesulfonamide (PFHxSA) Oral Exposure” (Toxics, 2025):

Key:
[1] = design: method as in PMID 31078680; settings: across both sexes; cited from earlier work
rats = settings: cited from earlier work
[2] = Ultracentrifugation plasma protein binding assay, human plasma; format: in vitro ADME
Experimental: Human and rat plasma were evaluated for plasma protein binding of PFHxSA and PFHxS using ultracentrifugation. Data generated in human plasma were obtained from an earlier study; for this study, data were generated in rat plasma following the same protocol as described by Smeltz et al.. SD rat plasma (pooled, mixed sex) was obtained from a commercial vendor (BioIVT, Westbury, NY, USA). Briefly, PFHxSA and PFHxS were added to the plasma to achieve a final assay concentration of 10 µM. Following a 1 h 37 °C incubation, 1 mL aliquots from each plasma solution were drawn in triplicate and transferred to polycarbonate ultracentrifuge tubes. These samples underwent ultracentrifugation (Beckman OptimaMax; Beckman Coulter Inc., Indianapolis, IN, USA) at 850,000× g for 4 h at 37 °C; after completion, the aqueous fraction (AF) was collected by transferring the supernatant to a new tube. Two sets of samples of the original PFAS-spiked whole plasma were also collected after a 1 h or a 5 h incubation at 37 °C. […]
Intrinsic hepatic clearance (Clint) and fraction unbound in plasma (fup) were calculated from the experimental point estimate data as described in Dobreniecki et al.. […] Renal clearance was calculated using the glomerular filtration rate (a species-dependent constant) and the fraction unbound in blood (fub), estimated by adjusting the experimental fup for blood/plasma partitioning. […]

Sprague Dawley rats = assay: Plasma thyroid hormone quantitation after 5-day oral PFHxSA exposure; format: in vivo, rat
Text: The plasma and liver samples for this investigation were provided by Mutlu et al.. The study design, including detailed descriptions of animal handling, procedures for dosing, clinical observations, termination, and collection of tissues, is reported elsewhere and is consistent with the ARRIVE guidelines. Briefly, male and female Sprague Dawley (SD) rats (Crl:CD(SD)) (n = 48/sex, 96 total) were purchased from Charles River Laboratory (Raleigh, NC, USA) and allowed to acclimate for ≥5 days before initial dosing. Rats were 8–10 weeks old at the time of exposure. PFHxSA dosing solutions in corn oil were prepared on Day 0 and used over the course of the study. Rats of both sexes (n = 5/sex, dose, and time point, plus eight vehicle controls per sex) were dosed by oral gavage (5 mL/kg body weight) once daily for five days. […] The formulation concentrations decreased from 100 mg/kg/day at half-log10 intervals until the lowest dose level, which was a full log10 interval below the next higher dose, giving eight dose levels (0.01 to 100 mg/kg/day or 0.025 µmol/kg/day to 250 µmol/kg/day) in addition to vehicle controls. Doses were administered in randomized order within ± 1 h on each day of dosing. […] Rats were euthanized 24 h after the last dose. Blood was collected via cardiac puncture with tripotassium ethylene diamine tetraacetic acid (K3EDTA) as an anti-coagulant and centrifuged to collect cell-free plasma. Liver was collected and flash-frozen in liquid nitrogen. Liver, plasma, and dosing formulation samples were frozen at the USEPA Center for Computational Toxicology and Exposure (CCTE), Durham, NC, USA. Tissue samples (plasma and liver, n = 96 each) were stored at ≤−70 °C prior to extraction; dosing formulation samples (n = 9) were stored at −20 °C.
Thyroid hormones (TH) triiodothyronine (T3), reverse triiodothyronine (rT3), and thyroxine (T4) (SI Table S1) were extracted from plasma spiked with ^13C-labeled TH in batches of up to 96 samples, along with an MB, CCV, and LCS for QC. Gibco (Billings, MT, USA) Dulbecco’s Phosphate-Buffered Saline was used as the control matrix. See SI Text S3 for the extraction procedure.
Samples were analyzed as previously described in O’Shaughnessy et al.. Isotope dilution targeted LC/MS/MS was performed using a Sciex (Framingham, MA, USA) 6500+ QTRAP liquid chromatography/linear ion trap mass spectrometer system operated in positive electrospray ionization (ESI) mode with multiple reaction monitoring (MRM) scanning. A Restek (Bellefonte, PA, USA) Raptor Biphenyl column (100 mm × 2.1 mm, 2.6 µm) was used for chromatographic separation with a flow rate of 0.3 mL/min and a 50 °C column temperature. Gradient elution (see SI Table S2) was obtained with 0.1% formic acid in water (H2O) (mobile phase A) and 0.1% formic acid in methanol (MeOH) (mobile phase B). Detection limits for T3, rT3, and T4 were 0.04 ng/mL in plasma. […]
Acceptance criterion for the ICV was a recovery of ± 20% of the nominal concentration of the ICV as quantitated from the calibration curve. Method blank, CCV, and LCS were injected at the beginning of every extraction batch and reinjected after every 30 samples to confirm the validity of the calibration curve and sample quantitation. If fewer than 30 samples were injected, all samples were bracketed by injections of the CCV at the beginning and end of the analysis batch.
Acceptance criteria for the CCV and LCS were ± 30% of nominal concentration. Method blanks were acceptable with PFHxSA signal < 0.5x the LOQ. Samples were injected in order of increasing dose.
Quantitation of PFHxS in liver and plasma was performed using the same QC criteria and extraction methods as PFHxSA, only the internal standard was supplied in the form of a Wellington Laboratories isotopically labeled MPFAC-24ES PFAS mixture containing 13C3-PFHxS. Samples were quantitated against PFHxS matrix-matched calibration curves containing a minimum of 5 points spanning the range […]

O=S(=O)(O)C(F)(F)C(F)(F)C(F)(F)C(F)(F)C(F)(F)C(F)(F)F [PFHxS, perfluorohexane sulfonic acid]
Liver partitioning summary values [1]: 0.16–0.44

NS(=O)(=O)C(F)(F)C(F)(F)C(F)(F)C(F)(F)C(F)(F)C(F)(F)F [PFHxSA, Perfluorohexanesulfonamide]
Doses at which transcriptional pathway changes are observed in multiple tissues (rats): less than 1 mg/kg/day
Benchmark dose for relative liver weight changes (rats; rats, ref Auerbach et al. [40]): 16.25 mg/kg/day
Exposures at which mortality was observed in a 5-day study (rats; ref Auerbach et al. [40]): above 100 mg/kg/d
Plasma binding of PFHxSA higher than PFHxS [2]: 2.25 fold
rT3 in female rat plasma (Sprague Dawley rats; all doses): not detected
rT3 in male rat plasma (Sprague Dawley rats; detected sporadically): no dose-responsive effect
Dose with plasma T4 statistically different from controls (Sprague Dawley rats; female rats): 100 mg/kg/day
Dose with plasma T3 statistically different from controls (Sprague Dawley rats; male and female rats): 100 mg/kg/day
Dose from which plasma T4 was significantly decreased (Sprague Dawley rats; male rats): 10 mg/kg/day
Exposures at which changes in THs occur (Sprague Dawley rats; rats): ≥ 10 mg/kg/day
